# Experimental data from paper PMC6509125, “The selective disruption of presynaptic JNK2/STX1a interaction reduces NMDA receptor-dependent glutamate release” (Scientific Reports, 2019).
# Columns and labels:
# Assay type in all cases: cell-based, mouse
# [1] = tested on: presynaptic NMDA receptors; test: mEPSC whole cell patch clamp recordings in entorhinal cortex slices; settings: TTX 1 µM, PTX 100 µM, MK-801 10 µM in pipette; n = 8
# STX1a (Ser14 p-STX1a) = test: STX1a Ser14 phosphorylation, western blot of cortical synaptosomes; settings: mean ± s.e.m.; for Ser14 p-STX1a levels vs. control = 1, stimulus alone: NMDA 100 µM + glycine 1 µM 10 min or KCl 8 mM 90 s (Fig. 1B), n = 6
# p54-JNK = p54-JNK phosphorylation, western blot of cortical synaptosomes; settings: mean ± s.e.m.; for p54-JNK phosphorylation vs. control, stimulus alone: NMDA 100 µM + glycine 1 µM 10 min or KCl 8 mM 90 s (Fig. 1A), n = 6
# p46-JNK = p46-JNK phosphorylation, western blot of cortical synaptosomes; settings: NMDA 100 µM + glycine 1 µM 10 min or KCl 8 mM 90 s (Fig. 1A); n = 6
# [2] = tested on: NMDA-evoked exocytosis, cortical synaptosomes; test: Synaptic vesicle release, FM1-43 destaining in cortical synaptosomes; settings: NMDA 100 µM + glycine 1 µM, 0 µM JGRi1; mean ± s.e.m., n = 5
# SNARE complex = SNARE complex formation assay in cortical synaptosomes; settings: NMDA 100 µM + glycine 1 µM 10 min alone; mean ± s.e.m., n = 4
Compound,"mEPSC amplitude, vehicle vs. D-AP5 [1]","mEPSC inter-event interval (iei), vehicle vs. D-AP5 [1]","Ser14 p-STX1a levels vs. control = 1, stimulus alone (STX1a (Ser14 p-STX1a))","p54-JNK phosphorylation vs. control, stimulus alone (p54-JNK)","p46-JNK phosphorylation, stimulus alone (p46-JNK)","STX1a phosphorylation vs. control = 1, stimulus alone (STX1a (Ser14 p-STX1a); NMDA 100 µM + glycine 1 µM 10 min alone (Fig. 4B), n = 7)","NMDA-induced release of fluorescent dye FM1-43, stimulus alone [2]","SNARE complex formation vs. control = 1, stimulus alone (SNARE complex)","p54-JNK phosphorylation vs. control = 1, stimulus alone (p54-JNK; NMDA 100 µM + glycine 1 µM 10 min alone (Fig. 4A), n = 7)"
NC(CCCP(=O)(O)O)C(=O)O [D-AP5],unaffected,induced an increase of iei,–,–,–,–,–,–,–
[Cl-].[K+] [KCl],–,–,1.22 ± 0.11,not by KCl stimulus,unchanged,–,–,–,–
"CN[C@H](CC(=O)O)C(=O)O [NMDA, N-methyl-D-aspartate]",–,–,1.38 ± 0.07,1.58 ± 0.12,unchanged,1.51 ± 0.13,68% ± 10,1.85 ± 0.06,1.54 ± 0.12
